# Active and inactive are the calls of the source. The rule behind the calls is not given here.
# Assays:
# MCF7 = experiment: Antiproliferative activity against human MCF7 cells assessed as cell viability incubated for 48 hrs by MTT assay; format: functional, cell-based; conditions: MCF7, 48 h
# HUVEC = experiment: Vascular disruptive effect in HUVEC cells assessed as reduction in tube formation at 10 nM measured after 6 to 9 hrs; format: functional, cell-based; conditions: Homo sapiens, time 6-9 hrs
# Tubulin (Homo sapiens) = Tubulin (Homo sapiens) (UniProt P68371+Q9H4B7+P0DPH7+P68366+Q13509+Q71U36+P04350+Q3ZCM7+P07437+P68363+Q9BQE3+Q6PEY2+Q13885+Q9BVA1+Q9BUF5); experiment: Inhibition of [3H]colchicine binding to tubulin (unknown origin) at 10 uM by competitive binding assay relative to control; format: protein-complex assay
# [1] = Cytotoxicity against HUVEC cells assessed as reduction in cell viability; format: toxicity, cell-based; conditions: human
# [2] = Toxicity in human A549 cells xenografted in athymic nude BALB/c nude mouse assessed as morphological changes in heart at 10 mg/kg, ip measured after 30 days by H and E staining based histological analysis; format: organism-based; conditions: in vivo, 720 h, time 30 day
# [3] = Acute toxicity in rat assessed as median lethal dose after at 175 to 550 mg/kg for 14 days; format: organism-based; conditions: in vivo, dose 175-550 mg/kg, time 14 day
# [4] = Cmax in ICR mouse at 1 mg/kg, iv single administration measured for 24 hrs post treatment by LC-MS/MS analysis; format: ADME, organism-based; parameters: time 24 hrs, dose 1 mg/kg, route iv; conditions: in vivo
# HeLa = experiment: Antiproliferative activity against human HeLa cells assessed as cell viability incubated for 48 hrs by MTT assay; format: functional, cell-based
# A549 = experiment: Induction of apoptosis in human A549 cells assessed as cell viability pretreated with ferroptosis inhibitor desferoxamine for 24 hrs followed by incubation with compound at 20 nM and measured after 48 hrs by CCK-8 assay; format: functional, cell-based
# [5] = Resistance index, ratio of IC50 for antiproliferative activity against human vincristine-resistant HCT-8/VCR cells to IC50 for antiproliferative activity against HCT-8 cells; format: functional
smiles,measurement,setting,value
C=C(c1cc(OC)c(OC)c(OC)c1)c1ccc(OC)c(O)c1NC(=O)CO,IC50,MCF7,50 nM
same,Activity,HUVEC,Active
same,inhibition,Tubulin (Homo sapiens),85%
same,IC50,[1],40 nM
same,Activity,[2],Non-Toxic
same,LD50 at 336 h,[3],327 mg/kg
same,Cmax,[4],871 ng/mL
same,IC50,HeLa,20 nM
same,Activity,A549,Active
same,Ratio IC50,[5],1.75
